Test results as given in US20220088403A1, “Methods And Compositions For Treating Coronavirus” (NOVOCURE GMBH, priority 2020, published 2022).

Experiments:
HCoV-229E [1] = experiment: Intracellular (cellular) viral load by RT-qPCR, combined effect of TTFields with remdesivir; format: cell-based, HCoV-229E in human MRC-5 lung fibroblast cells; details: for Calculated additive: Remdesivir alone multiplied by TTFields alone
HCoV-229E [2] = experiment: Extracellular viral amount (virions secreted to the media) by RT-qPCR, combined effect of TTFields with remdesivir; format: cell-based, HCoV-229E in human MRC-5 lung fibroblast cells; details: 48 hpi

In the case of `CCC(CC)COC(=O)[C@H](C)N[P@](=O)(OC[C@H]1O[C@@](C#N)(c2ccc3c(N)ncnn23)[C@H](O)[C@@H]1O)Oc1ccccc1` [remdesivir], the “reduction of cellular viral load” value (HCoV-229E [1]; 0.023 μM remdesivir alone, MRC-5 infected 3 hr, MOI 0.01, 48 hpi) is reported as 65%, the inhibition at 0.011 µM (HCoV-229E [1]; Human coronavirus 229E, MRC5, 0.011 μM remdesivir alone, MRC-5 infected 3 hr, MOI 0.01, 48 hpi) is reported as 27% and the “Remdesivir alone (viral load remaining relative to control)” value (HCoV-229E [1]; Remdesivir concentration 0.011) is reported as 73%. For the same compound, the Calculated additive (HCoV-229E [1]; Remdesivir concentration 0.011) was 42%, the “Measured combined (viral load remaining relative to control)” value (HCoV-229E [1]; Remdesivir concentration 0.011 with TTFields) was 46% and the “Remdesivir alone (viral load remaining relative to control)” value (HCoV-229E [1]; Remdesivir concentration 0.023) was 35%. The Calculated additive (HCoV-229E [1]; Remdesivir concentration 0.023) was 20%, the “Measured combined (viral load remaining relative to control)” value (HCoV-229E [1]; Remdesivir concentration 0.023 with TTFields) was 15% and the “reduction of viral load” value (HCoV-229E [1]; high dose (0.023 μM) remdesivir with concomitant 150 kHz TTFields, 48 hpi) was 85%. The “reduction of viral load” value (HCoV-229E [1]; low dose (0.011 μM) remdesivir with concomitant 150 kHz TTFields, 48 hpi) was 54%, the “reduction in number of virions secreted to the media” value (HCoV-229E [2]; 0.011 μM remdesivir alone) was 31% and the “reduction in number of virions secreted to the media” value (HCoV-229E [2]; 0.023 μM remdesivir alone) was 75%. For the same compound, the “decrease in number of virions secreted to the media” value (HCoV-229E [2]; high dose (0.023 μM) remdesivir with concomitant 150 kHz TTFields) was 88% and the “decrease in number of virions secreted to the media” value (HCoV-229E [2]; low dose (0.011 μM) remdesivir with concomitant 150 kHz TTFields) was 68%.
